Source: US12391671B2, “Allosteric EGFR inhibitors and methods of use thereof” (Dana-Farber Cancer Institute, Inc., priority 2019, dated 2025)
pIC50: −log10 of the molar value. Counter-ions that a name gives are not always drawn. Like-named read-outs stand apart in the source and are kept apart here.

Assays:
[1] = target: EGFR L858R/T790M (Homo sapiens (Human), UniProt P00533, L858R/T790M); test: HTRF-based EGFR biochemical assay (L858R/T790M); settings: 100 μM ATP, enzyme 0.02 nM
Procedure: (§1) Example 25: HTRF-Based EGFR Biochemical Assays
(§2) EGFR biochemical activity measurements were carried out using the homogeneous time-resolved fluorescence (HTRF) assay (Cisbio), inhibitors and DMSO normalizations were first dispensed to empty black low-volume 384-well plates (Corning) with 0300 digital liquid dispenser (HP). All reactions were carried out at room temperature and solutions were added to plates with a Multidrop Combi Reagent Dispenser (ThermoFisher). The reaction mixture (10 μL final volume) contained 1 μM tyrosine kinase peptide-biotin substrate and mutant EGFR in a reaction buffer (50 mM HEPES pH 7.0, 5 mM MgCl2, 1 mM MnCl2, 0.01% BSA, 2 mM TCEP, 0.1 mM NaVO4). Enzyme concentrations were adjusted to accommodate varying kinase activities (L858R 0.1 nM, L858R/T790M 0.02 nM). Enzyme reaction solution (2× concentrations, 5 μL) was added to 384-well plates containing compounds and incubated for 30 mins. Enzyme reactions were initiated with the addition of 5 μL of ATP to a final concentration of 100 μM and reacted for 20 mins. Reactions were quenched with the addition of 10 μL of phospho-tyrosine antibody-Europium(III) cryptate (1-to-180 volume ratio) and Streptavidin-XL665 (46.7 nM) in EDTA-containing detection buffer, then incubated at room temperature for 1 hour, and read with a PHERAstar plate reader (excitation=337 nm, emission=620 nm and 665 nm).

[2] = target: EGFR L858R (Homo sapiens (Human), UniProt P00533, L858R); test: HTRF-based EGFR biochemical assay (L858R); settings: 100 μM ATP, enzyme 0.1 nM
Procedure: as §1, §2

[3] = system: EGFR mutant L858R/T790M Ba/F3 cells; test: Ba/F3 cell proliferation model (Cell Titer Glo), EGFR L858R/T790M; type: cell-based, murine; settings: 72 hours
Description: Example 26: Ba/F3 Cell Proliferation Models
The EGFR mutant L858R and L858R/T790M Ba/F3 cells have been previously described (Zhou, W., et al. Nature 462, 2009, 1070-1074). All cell lines were maintained in RPM 1640 (Cellgro; Mediatech Inc., Herndon. CA) supplemented with 10% FBS, 100 units/mL penicillin, 100 units/mL streptomycin. The EGFR I941R mutation was introduced via site directed mutagenesis using the Quick Change Site-Directed Mutagenesis kit (Stratagene; La Jolla, CA) according to the manufacturer's instructions. All constructs were confirmed by DNA sequencing. The constructs were shuttled into the retroviral vector JP1540 using the Cre-recombination system (Agilent Technologies, Santa Clara, CA). Ba/F3 cells were then infected with retrovirus per standard protocols, as described previously (Zhou, et al, Nature 2009). Stable clones were obtained by selection in puromycin (2 μg/ml).
Growth and inhibition of growth was assessed by the Cell Titer Glo® assay (Promega, Madison, WI) and was performed according to the manufacturer's instructions. The Cell Titer Glo® assay is a luminescence-based method used to determine the number of viable cells based on quantitation of the ATP present, which is directly proportional to the amount of metabolically active cells present. Ba/F3 cells of different EGFR genotypes were exposed to compounds as a single agent or in combination with 1 μg/mL cetuximab for 72 hours and the number of cells used per experiment was determined empirically as has been previously established (Zhou, et al., Nature 2009). All experimental points were set up in triplicates in 384-well plates and all experiments were repeated at least three times. […] The curves were fitted using a non-linear regression model with a sigmoidal dose response.

[4] = Mus musculus, BaF3, single agent, read-out: Cell IC50 BaF3 EGFR L858R/T790M
[5] = in combination with 1 μg/mL cetuximab, read-out: Cell IC50 BaF3 EGFR L858R/T790M (+cetux.)

Chain of EGFR L858R (P00533 25-1210 L858R): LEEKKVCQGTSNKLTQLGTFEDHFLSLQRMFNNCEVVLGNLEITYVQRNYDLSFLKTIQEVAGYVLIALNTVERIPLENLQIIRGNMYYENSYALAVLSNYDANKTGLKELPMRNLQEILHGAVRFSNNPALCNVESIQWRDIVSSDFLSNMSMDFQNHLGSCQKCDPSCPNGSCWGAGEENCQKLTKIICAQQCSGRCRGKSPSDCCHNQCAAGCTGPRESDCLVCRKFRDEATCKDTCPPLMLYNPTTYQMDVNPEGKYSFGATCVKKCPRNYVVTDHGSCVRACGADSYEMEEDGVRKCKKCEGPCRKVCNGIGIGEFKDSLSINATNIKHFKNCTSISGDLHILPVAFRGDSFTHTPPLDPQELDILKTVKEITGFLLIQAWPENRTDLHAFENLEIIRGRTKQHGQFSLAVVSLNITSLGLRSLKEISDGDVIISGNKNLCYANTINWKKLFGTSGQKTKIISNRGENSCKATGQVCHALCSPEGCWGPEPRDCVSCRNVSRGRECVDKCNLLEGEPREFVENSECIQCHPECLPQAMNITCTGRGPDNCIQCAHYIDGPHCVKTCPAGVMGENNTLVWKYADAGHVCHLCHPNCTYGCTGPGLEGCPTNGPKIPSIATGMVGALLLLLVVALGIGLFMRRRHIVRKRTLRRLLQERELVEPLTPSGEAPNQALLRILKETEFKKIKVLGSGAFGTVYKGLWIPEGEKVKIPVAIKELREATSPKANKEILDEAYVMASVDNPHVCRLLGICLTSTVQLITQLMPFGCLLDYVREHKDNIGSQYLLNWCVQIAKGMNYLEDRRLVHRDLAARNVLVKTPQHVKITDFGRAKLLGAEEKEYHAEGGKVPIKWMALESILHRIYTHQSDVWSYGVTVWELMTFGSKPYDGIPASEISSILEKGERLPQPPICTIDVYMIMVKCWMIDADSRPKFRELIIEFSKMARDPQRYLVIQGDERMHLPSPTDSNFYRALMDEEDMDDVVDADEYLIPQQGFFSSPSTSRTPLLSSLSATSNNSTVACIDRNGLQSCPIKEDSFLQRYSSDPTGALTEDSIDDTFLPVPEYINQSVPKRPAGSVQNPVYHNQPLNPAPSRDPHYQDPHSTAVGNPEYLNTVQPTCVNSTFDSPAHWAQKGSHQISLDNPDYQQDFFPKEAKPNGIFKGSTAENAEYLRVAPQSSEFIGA
Chain of EGFR L858R/T790M (P00533 25-1210 T790M/L858R): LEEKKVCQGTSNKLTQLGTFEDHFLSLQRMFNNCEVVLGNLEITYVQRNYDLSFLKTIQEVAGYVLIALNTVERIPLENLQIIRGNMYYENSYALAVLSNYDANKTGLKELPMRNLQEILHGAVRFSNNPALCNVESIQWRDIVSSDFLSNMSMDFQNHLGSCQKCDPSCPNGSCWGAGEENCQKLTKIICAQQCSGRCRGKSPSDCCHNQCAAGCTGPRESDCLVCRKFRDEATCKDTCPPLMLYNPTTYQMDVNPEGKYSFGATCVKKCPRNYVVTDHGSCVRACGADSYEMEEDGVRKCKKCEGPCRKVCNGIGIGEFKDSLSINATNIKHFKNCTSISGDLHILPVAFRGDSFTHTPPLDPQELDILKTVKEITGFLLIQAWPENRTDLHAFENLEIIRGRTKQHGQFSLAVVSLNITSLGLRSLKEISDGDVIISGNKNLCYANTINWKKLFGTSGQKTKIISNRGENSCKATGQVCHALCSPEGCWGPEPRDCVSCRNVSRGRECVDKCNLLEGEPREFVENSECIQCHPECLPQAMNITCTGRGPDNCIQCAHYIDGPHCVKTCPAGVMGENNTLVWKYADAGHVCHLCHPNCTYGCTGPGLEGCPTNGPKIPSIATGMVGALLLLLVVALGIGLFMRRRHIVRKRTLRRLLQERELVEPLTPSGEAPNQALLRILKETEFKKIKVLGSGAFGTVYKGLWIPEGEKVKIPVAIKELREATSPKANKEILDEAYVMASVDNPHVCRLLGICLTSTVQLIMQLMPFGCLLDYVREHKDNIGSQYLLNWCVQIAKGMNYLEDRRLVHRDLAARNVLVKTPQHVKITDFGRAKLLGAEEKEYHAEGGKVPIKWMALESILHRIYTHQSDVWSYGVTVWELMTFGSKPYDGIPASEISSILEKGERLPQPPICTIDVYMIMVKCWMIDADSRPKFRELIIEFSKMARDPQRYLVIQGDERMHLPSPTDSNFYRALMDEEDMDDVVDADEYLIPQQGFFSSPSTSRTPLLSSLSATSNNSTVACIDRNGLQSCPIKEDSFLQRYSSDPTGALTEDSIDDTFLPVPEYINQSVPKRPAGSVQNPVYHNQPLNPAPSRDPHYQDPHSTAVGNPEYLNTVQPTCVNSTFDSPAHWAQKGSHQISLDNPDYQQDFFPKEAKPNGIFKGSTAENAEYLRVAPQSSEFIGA

Row | SMILES | pIC50 [1] | pIC50 [2] | pIC50 [3, 4] | pIC50 [3, 5]
1 | CN1CCC(c2ccc(-c3ccc4c(c3)C(=O)N([C@H](c3nc5ccccc5[nH]3)c3cc(F)ccc3O)C4)cc2)CC1 (single isomer, unassigned) [Compound 023] | 9.00 | 8.22 | 6.02 | 7.70
2 | CN1CCC(c2ccc(-c3ccc4ncn(C(c5nc6ccccc6[nH]5)c5cc(F)ccc5O)c(=O)c4c3)cc2F)CC1 (stereo not drawn) [Compound 001, 3-[1H-Benzimidazol-2-yl-(5-fluoro-2-hydroxy-phenyl)methyl]-6-[3-fluoro-4-(1-methyl-4-piperidyl)phenyl]quinazolin-4-one; hydrochloride] | 9.40 | 9.00 | 6.49 | 8.05
3 | CN1CCC(c2ccc(-c3ccc4ncn(C(c5ccccc5)c5nc6ccccc6[nH]5)c(=O)c4c3)cc2)CC1 (stereo not drawn) [Compound 002, 3-[1H-Benzimidazol-2-yl(phenyl)methyl]-6-[4-(1-methyl-4-piperidyl)phenyl]quinazolin-4-one] | 8.40 | 7.77 | 5.35 | 6.85
4 | CN1CCC(c2ccc(-c3ccc4ncn(C(c5ccccc5)c5nc6ccccc6[nH]5)c(=O)c4c3F)cc2)CC1 (stereo not drawn) [Compound 003, 3-((1H-Benzo[d]imidazol-2-yl)(phenyl)methyl)-5-fluoro-6-(4-(1-methylpiperidin-4-yl)phenyl)quinazolin-4(3H)-one 2,2,2-trifluoroacetate] | 8.70 | 8.05 | 5.85 | 7.30
5 | CN1CCC(c2ccc(-c3ccc4ncn(C(c5cccc(F)c5)c5nc6ccccc6[nH]5)c(=O)c4c3F)cc2)CC1 (stereo not drawn) [Compound 005, 3-((1H-Benzo[d]imidazol-2-yl)(3-fluorophenyl)methyl)-5-fluoro-6-(4-(1-methylpiperidin-4-yl)phenyl)-quinazolin-4(3H)-one 2,2,2-trifluoroacetate] | 9.00 | 8.10 | 5.91 | 7.70
6 | CN1CCC(c2ccc(-c3ccc4ncn(C(c5nc6ccccc6[nH]5)c5cc(F)ccc5O)c(=O)c4c3F)cc2F)CC1 (stereo not drawn) [Compound 007, 3-[1H-benzimidazol-2-yl-(5-fluoro-2-hydroxy-phenyl)methyl]-5-fluoro-6-[3-fluoro-4-(1-methyl-4-piperidyl)phenyl]quinazolin-4-one; hydrochloride] | 9.40 | 9.00 | 6.28 | 8.05
7 | CN1CCC(c2ccc(-c3ccc4ncn(C(c5cccc(F)c5)c5nc6ccccc6[nH]5)c(=O)c4n3)cc2)CC1 (stereo not drawn) [Compound 008, 3-((1H-Benzo[d]imidazol-2-yl)(3-fluorophenyl)methyl)-6-(4-(1-methylpiperidin-4-yl)phenyl)-pyrido[3,2-d]pyrimidin-4(3H)-one 2,2,2-trifluoroacetate] | 8.30 | 7.38 | 5.27 | 6.77
8 | CN1CCC(c2ccc(-c3cnc4c(c3)C(=O)N(C(c3nc5ccccc5[nH]3)c3cc(F)ccc3O)C4)cc2)CC1 (stereo not drawn) [Compound 010, 6-[1H-Benzimidazol-2-yl-(5-fluoro-2-hydroxy-phenyl)methyl]-3-[4-(1-methyl-4-piperidyl)phenyl]-7H-pyrrolo[3,4-b]pyridin-5-one] | 8.40 | 7.92 | 5.71 | 7.70
9 | CN1CCC(C#Cc2ccc3c(c2)C(=O)N(C(c2nc4ccccc4[nH]2)c2cc(F)ccc2O)C3)CC1 (stereo not drawn) [Compound 011, 2-[1H-benzimidazol-2-yl-(5-fluoro-2-hydroxy-phenyl)methyl]-6-[2-(1-methyl-4-piperidyl)-ethynyl]isoindolin-1-one; hydrochloride] | 8.00 | 7.82 | 5.72 | 8.00
10 | Nc1ccc(C#Cc2ccc3c(c2)C(=O)N(C(c2nc4ccccc4[nH]2)c2cc(F)ccc2O)C3)cn1 (stereo not drawn) [Compound 012, 6-[2-(6-Amino-3-pyridyl)ethynyl]-2-[1H-benzimidazol-2-yl-(5-fluoro-2-hydroxy-phenyl)methyl]isoindolin-1-one] | 8.22 | 7.32 | 6.21 | 8.00
11 | O=C1c2cc(C#CCN3CCS(=O)(=O)CC3)ccc2CN1C(c1nc2ccccc2[nH]1)c1cc(F)ccc1O (stereo not drawn) [Compound 013, 2-[1H-benzimidazol-2-yl-(5-fluoro-2-hydroxy-phenyl)methyl]-6-[3-(1,1-dioxo-1,4-thiazinan-4-yl)prop-1-ynyl]isoindolin-1-one; hydrochloride] | 7.48 | 7.66 | < 5.00 | 6.59
12 | CN1CCC(c2ccc(-c3ccc4c(c3)C(=O)N(C(c3nc5cnccc5[nH]3)c3cc(F)ccc3O)C4)cc2)CC1 (stereo not drawn) [Compound 015, 2-[(5-Fluoro-2-hydroxy-phenyl)-(1H-imidazo[4,5-c]pyridin-2-yl)methyl]-6-[4-(1-methyl-4-piperidyl)phenyl]isoindolin-1-one;hydrochloride] | 8.70 | 7.82 | 5.96 | 7.70
13 | CN1CCC(F)(c2ccc(-c3ccc4c(c3)C(=O)N(C(c3nc5ccccc5[nH]3)c3cc(F)ccc3O)C4)cc2)CC1 (stereo not drawn) [Compound 016, 2-[1H-Benzimidazol-2-yl-(5-fluoro-2-hydroxy-phenyl)methyl]-6-[4-(4-fluoro-1-methyl-4-piperidyl)phenyl]isoindolin-1-one; hydrochloride] | 9.15 | 8.52 | 6.23 | 8.00
14 | CN1CCC(c2ccc(-c3ccc4c(c3)C(=O)N(C(c3nc5ccccc5[nH]3)c3cc(F)ccc3O)C4)cc2F)CC1 (stereo not drawn) [Compound 017, 2-[1H-Benzimidazol-2-yl-(5-fluoro-2-hydroxy-phenyl)methyl]-6-[3-fluoro-4-(1-methyl-4-piperidyl)phenyl]isoindolin-1-one; hydrochloride] | 9.40 | 9.00 | 6.59 | 8.22
15 | CN1CCC(c2ccc(-c3ccc4c(c3)C(=O)N(C(c3nc5cncnc5[nH]3)c3cc(F)ccc3O)C4)cc2)CC1 (stereo not drawn) [Compound 018, 2-[(5-Fluoro-2-hydroxy-phenyl)-(9H-purin-8-yl)methyl]-6-[4-(1-methyl-4-piperidyl)phenyl]isoindoiin-1-one; hydrochloride] | 8.30 | 8.05 | 5.46 | 7.70
16 | CN1CCC(c2ccc(-c3ccc4c(c3)C(=O)N(C(c3nc5nccnc5[nH]3)c3cc(F)ccc3O)C4)cc2)CC1 (stereo not drawn) [Compound 019, 2-[(5-Fluoro-2-hydroxy-phenyl)-(1H-imidazo[4,5-b]pyrazin-2-yl)methyl]-6-[4-(1-methyl-4-piperidyl)phenyl]isoindolin-1-one; hydrochloride] | 9.00 | 8.40 | 5.73 | 8.00
17 | CN1CCC(c2ccc(-c3ccc4c(c3)C(=O)N(C(c3cccc(F)c3)c3nc5cccnc5[nH]3)C4)cc2)CC1 (stereo not drawn) [Compound 025] | 7.96 | 6.82 | 5.52 | 6.74
18 | CN1CCC(c2ccc(-c3ccc4c(c3)C(=O)N(C(c3cccc(F)c3)c3nc5ccccc5[nH]3)C4)cc2)CC1 (stereo not drawn) [Compound 026, 2-[1H-Benzimidazol-2-yl-(3-fluorophenyl)methyl]-6-[4-(1-methyl-4-piperidyl)phenyl]isoindolin-1-one] | 8.15 | 7.59 | 5.64 | 7.10
